Test results from patent publication US20020137929A1, “1 - (3-heterocyclylphenyl) isothiourea, -isourea, -guanidine and -amidine herbicidal agents” (Intellectual Property Department, BASF Aktiengesellschaft, priority 1998, published 2002).

How the values were obtained:
[1] = system: GLXMAW (Soybean, Williams); assay: Preemergence herbicidal evaluation; format: in vivo, Glycine max, (L.) Merr. cv Williams; conditions: rated 4-5 weeks after treatment
Outline: (§1)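 Steps: mix seeds into potting soil; plant atop ~1 inch soil; spray compound in aqueous acetone (~0.0156-0.500 kg/ha equivalent); maintain in greenhouse with watering; rate visually 0-9 versus control at 4-5 weeks.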

[2] = system: TRZAWR (Wheat, Winter, cv Riband); assay: Postemergence herbicidal evaluation; format: in vivo, Triticum aestivum; conditions: postemergence
Outline: (§2)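 Each compound, dispersed in an acetone/water mix (50/50) carrying 0.5% TWEEN 20, is nozzle-sprayed at 40 psi on approximately two-week-old seedlings at about 0.0156–0.500 kg/ha. Plants are assessed 4–5 weeks afterward on a 0–9 scale relative to control; duplicate tests are averaged.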

[3] = system: SAGPY (Arrowhead (Pygmaea)); assay: Preemergence weed control under flooded paddy conditions; format: in vivo, Sagittaria pygmaea; conditions: rated 3-4 weeks after treatment
Outline: (§3)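 Visual injury scored 0-9 against control three to four weeks post-treatment, greenhouse-grown. Application: acetone/water (50/50) solutions dosed directly into flood water (1.5-3 cm over silt loam, planted top 0.5 cm), roughly 0.0313 to 0.500 kg/ha active ingredient.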

[4] = system: CHEAL (Lambsquarters, Common); assay: Postemergence herbicidal evaluation; format: in vivo, Chenopodium album; conditions: postemergence
Outline: as §2

[5] = system: IPOHE (Morningglory, Ivyleaf); assay: Preemergence herbicidal evaluation; format: in vivo, Ipomoea hederacea; conditions: rated 4-5 weeks after treatment
Outline: as §1

[6] = system: ABUTH (Velvetleaf); assay: Preemergence herbicidal evaluation; format: in vivo, Abutilon theophrasti; conditions: rated 4-5 weeks after treatment
Outline: as §1

[7] = system: CASOB (Sicklepod); assay: Preemergence herbicidal evaluation; format: in vivo, Cassia obtusifolia; conditions: rated 4-5 weeks after treatment
Outline: as §1

[8] = system: CASOB (Sicklepod); assay: Postemergence herbicidal evaluation; format: in vivo, Cassia obtusifolia; conditions: postemergence
Outline: as §2

[9] = system: ORYSAT (Rice, Tebonnet); assay: Preemergence herbicidal evaluation; format: in vivo, Oryza sativa, (L.) Tebonnet; conditions: rated 4-5 weeks after treatment
Outline: as §1

[10] = system: MOOVA (Monochoria); assay: Preemergence weed control under flooded paddy conditions; format: in vivo, Monochoria vaginalis; conditions: rated 3-4 weeks after treatment
Outline: as §3

[11] = system: AMBEL (Ragweed, Common); assay: Postemergence herbicidal evaluation; format: in vivo, Ambrosia artemisifolia; conditions: postemergence
Outline: as §2

[12] = system: IPOHE (Morningglory, Ivyleaf); assay: Postemergence herbicidal evaluation; format: in vivo, Ipomoea hederacea; conditions: postemergence
Outline: as §2

[13] = system: AMBEL (Ragweed, Common); assay: Preemergence herbicidal evaluation; format: in vivo, Ambrosia artemisifolia; conditions: rated 4-5 weeks after treatment
Outline: as §1

[14] = system: CHEAL (Lambsquarters, Common); assay: Preemergence herbicidal evaluation; format: in vivo, Chenopodium album; conditions: rated 4-5 weeks after treatment
Outline: as §1

[15] = system: ECHCG (Barnyardgrass); assay: Postemergence herbicidal evaluation; format: in vivo, Echinochloa crus-galli; conditions: postemergence
Outline: as §2

[16] = system: GLXMAW (Soybean, Williams); assay: Postemergence herbicidal evaluation; format: in vivo, Glycine max, (L.) Merr. cv Williams; conditions: postemergence
Outline: as §2

CCOC(=O)CN1C(=O)CO/C1=N/c1cc(-n2c(=O)cc(C(F)(F)F)n(C)c2=O)c(F)cc1Cl [Compound 22, Ethyl 2-{{2-chloro-5-[3,6-dihydro-3-methyl-2,6-dioxo-4-(trifluoromethyl)-1(2H)-pyrimidinyl]-4-fluorophenyl}imino}-4-oxo-3-oxazolidineacetate]
GLXMAW preemergence herbicidal rating ([1]; rate 0.0156 kg/ha): 0.0
GLXMAW preemergence herbicidal rating ([1]; rate 0.0313 kg/ha): 0.0
GLXMAW preemergence herbicidal rating ([1]; rate 0.0625 kg/ha): 3.0
GLXMAW preemergence herbicidal rating ([1]; rate 0.1250 kg/ha): 7.0
GLXMAW preemergence herbicidal rating ([1]; rate 0.2500 kg/ha): 9.0
TRZAWR herbicidal rating ([2]; rate 0.0158 kg/ha): 4.0
TRZAWR herbicidal rating ([2]; rate 0.0315 kg/ha): 3.5
TRZAWR herbicidal rating ([2]; rate 0.0630 kg/ha): 5.0
Herbicidal rating SAGPY ([3]; 0.1160 kg/ha): 4.0
Herbicidal rating SAGPY ([3]; 0.2310 kg/ha): 4.0
Herbicidal rating SAGPY ([3]; 0.4630 kg/ha): 5.0
CHEAL herbicidal rating ([4]; rate 0.0158 kg/ha): 4.0
CHEAL herbicidal rating ([4]; rate 0.0315 kg/ha): 6.0
CHEAL herbicidal rating ([4]; rate 0.0630 kg/ha): 3.0
IPOHE preemergence herbicidal rating ([5]; rate 0.0156 kg/ha): 0.0
IPOHE preemergence herbicidal rating ([5]; rate 0.0313 kg/ha): 2.0
IPOHE preemergence herbicidal rating ([5]; rate 0.0625 kg/ha): 9.0
IPOHE preemergence herbicidal rating ([5]; rate 0.1250 kg/ha): 9.0
IPOHE preemergence herbicidal rating ([5]; rate 0.2500 kg/ha): 9.0
ABUTH preemergence herbicidal rating ([6]; rate 0.0156 kg/ha): 9.0
ABUTH preemergence herbicidal rating ([6]; rate 0.0313 kg/ha): 9.0
ABUTH preemergence herbicidal rating ([6]; rate 0.0625 kg/ha): 9.0
ABUTH preemergence herbicidal rating ([6]; rate 0.1250 kg/ha): 9.0
ABUTH preemergence herbicidal rating ([6]; rate 0.2500 kg/ha): 9.0
CASOB preemergence herbicidal rating ([7]; rate 0.0156 kg/ha): 0.0
CASOB preemergence herbicidal rating ([7]; rate 0.0313 kg/ha): 0.0
CASOB preemergence herbicidal rating ([7]; rate 0.0625 kg/ha): 0.0
CASOB preemergence herbicidal rating ([7]; rate 0.1250 kg/ha): 3.0
CASOB preemergence herbicidal rating ([7]; rate 0.2500 kg/ha): 9.0
CASOB herbicidal rating ([8]; rate 0.0158 kg/ha): 1.0
CASOB herbicidal rating ([8]; rate 0.0315 kg/ha): 2.0
CASOB herbicidal rating ([8]; rate 0.0630 kg/ha): 1.0
ORYSAT preemergence herbicidal rating ([9]; rate 0.0156 kg/ha): 0.0
ORYSAT preemergence herbicidal rating ([9]; rate 0.0313 kg/ha): 0.0
ORYSAT preemergence herbicidal rating ([9]; rate 0.0625 kg/ha): 0.0
ORYSAT preemergence herbicidal rating ([9]; rate 0.1250 kg/ha): 5.0
ORYSAT preemergence herbicidal rating ([9]; rate 0.2500 kg/ha): 8.0
Herbicidal rating MOOVA ([10]; 0.1160 kg/ha): 9.0
Herbicidal rating MOOVA ([10]; 0.2310 kg/ha): 9.0
Herbicidal rating MOOVA ([10]; 0.4630 kg/ha): 9.0
AMBEL herbicidal rating ([11]; rate 0.0158 kg/ha): 6.0
AMBEL herbicidal rating ([11]; rate 0.0315 kg/ha): 6.0
AMBEL herbicidal rating ([11]; rate 0.0630 kg/ha): 7.0
IPOHE herbicidal rating ([12]; rate 0.0158 kg/ha): 9.0
IPOHE herbicidal rating ([12]; rate 0.0315 kg/ha): 9.0
IPOHE herbicidal rating ([12]; rate 0.0630 kg/ha): 9.0
AMBEL preemergence herbicidal rating ([13]; rate 0.0156 kg/ha): 0.0
AMBEL preemergence herbicidal rating ([13]; rate 0.0313 kg/ha): 5.0
AMBEL preemergence herbicidal rating ([13]; rate 0.0625 kg/ha): 7.0
AMBEL preemergence herbicidal rating ([13]; rate 0.1250 kg/ha): 9.0
AMBEL preemergence herbicidal rating ([13]; rate 0.2500 kg/ha): 9.0
CHEAL preemergence herbicidal rating ([14]; rate 0.0156 kg/ha): 9.0
CHEAL preemergence herbicidal rating ([14]; rate 0.0313 kg/ha): 9.0
CHEAL preemergence herbicidal rating ([14]; rate 0.0625 kg/ha): 9.0
CHEAL preemergence herbicidal rating ([14]; rate 0.1250 kg/ha): 9.0
CHEAL preemergence herbicidal rating ([14]; rate 0.2500 kg/ha): 9.0
ECHCG herbicidal rating ([15]; rate 0.0158 kg/ha): 2.0
ECHCG herbicidal rating ([15]; rate 0.0315 kg/ha): 2.0
ECHCG herbicidal rating ([15]; rate 0.0630 kg/ha): 1.0
GLXMAW herbicidal rating ([16]; rate 0.0158 kg/ha): 5.5
GLXMAW herbicidal rating ([16]; rate 0.0315 kg/ha): 6.5
GLXMAW herbicidal rating ([16]; rate 0.0630 kg/ha): 5.5

CN(C)N1C(=O)CSC1=Nc1cc(-n2c(=O)cc(C(F)(F)F)n(C)c2=O)c(F)cc1Cl [Compound 23, 3-{4-Chloro-5-{[3-(dimethylamino)-4-oxo-2-thiazolidinylidine]amino}-2-fluorophenyl}-1-methyl-6-(trifluoromethyl)-2,4(1H,3H)-pyrimidinedione]
GLXMAW preemergence herbicidal rating ([1]; rate 0.0156 kg/ha): 0.0
GLXMAW preemergence herbicidal rating ([1]; rate 0.0313 kg/ha): 0.0
GLXMAW preemergence herbicidal rating ([1]; rate 0.0625 kg/ha): 2.0
GLXMAW preemergence herbicidal rating ([1]; rate 0.1250 kg/ha): 6.0
GLXMAW preemergence herbicidal rating ([1]; rate 0.2500 kg/ha): 7.0
TRZAWR herbicidal rating ([2]; rate 0.0158 kg/ha): 2.5
TRZAWR herbicidal rating ([2]; rate 0.0315 kg/ha): 4.0
TRZAWR herbicidal rating ([2]; rate 0.0630 kg/ha): 5.0
Herbicidal rating SAGPY ([3]; 0.1160 kg/ha): 0.0
Herbicidal rating SAGPY ([3]; 0.2310 kg/ha): 0.0
Herbicidal rating SAGPY ([3]; 0.4630 kg/ha): 3.0
CHEAL herbicidal rating ([4]; rate 0.0158 kg/ha): 2.0
CHEAL herbicidal rating ([4]; rate 0.0315 kg/ha): 7.0
CHEAL herbicidal rating ([4]; rate 0.0630 kg/ha): 9.0
IPOHE preemergence herbicidal rating ([5]; rate 0.0156 kg/ha): 0.0
IPOHE preemergence herbicidal rating ([5]; rate 0.0313 kg/ha): 0.0
IPOHE preemergence herbicidal rating ([5]; rate 0.0625 kg/ha): 1.0
IPOHE preemergence herbicidal rating ([5]; rate 0.1250 kg/ha): 5.0
IPOHE preemergence herbicidal rating ([5]; rate 0.2500 kg/ha): 9.0
ABUTH preemergence herbicidal rating ([6]; rate 0.0156 kg/ha): 0.0
ABUTH preemergence herbicidal rating ([6]; rate 0.0313 kg/ha): 1.0
ABUTH preemergence herbicidal rating ([6]; rate 0.0625 kg/ha): 9.0
ABUTH preemergence herbicidal rating ([6]; rate 0.1250 kg/ha): 9.0
ABUTH preemergence herbicidal rating ([6]; rate 0.2500 kg/ha): 9.0
CASOB preemergence herbicidal rating ([7]; rate 0.0156 kg/ha): 0.0
CASOB preemergence herbicidal rating ([7]; rate 0.0313 kg/ha): 0.0
CASOB preemergence herbicidal rating ([7]; rate 0.0625 kg/ha): 1.0
CASOB preemergence herbicidal rating ([7]; rate 0.1250 kg/ha): 2.0
CASOB preemergence herbicidal rating ([7]; rate 0.2500 kg/ha): 5.0
CASOB herbicidal rating ([8]; rate 0.0158 kg/ha): 0.0
CASOB herbicidal rating ([8]; rate 0.0315 kg/ha): 1.0
CASOB herbicidal rating ([8]; rate 0.0630 kg/ha): 3.0
ORYSAT preemergence herbicidal rating ([9]; rate 0.0156 kg/ha): 0.0
ORYSAT preemergence herbicidal rating ([9]; rate 0.0313 kg/ha): 0.0
ORYSAT preemergence herbicidal rating ([9]; rate 0.0625 kg/ha): 1.0
ORYSAT preemergence herbicidal rating ([9]; rate 0.1250 kg/ha): 1.0
ORYSAT preemergence herbicidal rating ([9]; rate 0.2500 kg/ha): 7.0
Herbicidal rating MOOVA ([10]; 0.1160 kg/ha): 9.0
Herbicidal rating MOOVA ([10]; 0.2310 kg/ha): 9.0
Herbicidal rating MOOVA ([10]; 0.4630 kg/ha): 9.0
AMBEL herbicidal rating ([11]; rate 0.0158 kg/ha): 2.0
AMBEL herbicidal rating ([11]; rate 0.0315 kg/ha): 4.0
AMBEL herbicidal rating ([11]; rate 0.0630 kg/ha): 7.0
IPOHE herbicidal rating ([12]; rate 0.0158 kg/ha): 4.0
IPOHE herbicidal rating ([12]; rate 0.0315 kg/ha): 9.0
IPOHE herbicidal rating ([12]; rate 0.0630 kg/ha): 9.0
AMBEL preemergence herbicidal rating ([13]; rate 0.0156 kg/ha): 0.0
AMBEL preemergence herbicidal rating ([13]; rate 0.0313 kg/ha): 0.0
AMBEL preemergence herbicidal rating ([13]; rate 0.0625 kg/ha): 3.0
AMBEL preemergence herbicidal rating ([13]; rate 0.1250 kg/ha): 6.0
AMBEL preemergence herbicidal rating ([13]; rate 0.2500 kg/ha): 7.0
CHEAL preemergence herbicidal rating ([14]; rate 0.0156 kg/ha): 0.0
CHEAL preemergence herbicidal rating ([14]; rate 0.0313 kg/ha): 1.0
CHEAL preemergence herbicidal rating ([14]; rate 0.0625 kg/ha): 7.0
CHEAL preemergence herbicidal rating ([14]; rate 0.1250 kg/ha): 9.0
CHEAL preemergence herbicidal rating ([14]; rate 0.2500 kg/ha): 9.0
ECHCG herbicidal rating ([15]; rate 0.0158 kg/ha): 0.0
ECHCG herbicidal rating ([15]; rate 0.0315 kg/ha): 2.0
ECHCG herbicidal rating ([15]; rate 0.0630 kg/ha): 2.0
GLXMAW herbicidal rating ([16]; rate 0.0158 kg/ha): 3.0
GLXMAW herbicidal rating ([16]; rate 0.0315 kg/ha): 3.5
GLXMAW herbicidal rating ([16]; rate 0.0630 kg/ha): 5.0
